In patent US9029337B2, “Modulation of factor 7 expression” (Isis Pharmaceuticals, Inc., priority 2007, dated 2015):
Strand notation (5' to 3'): a small letter for the sugar, then the base; units joined by * are phosphorothioate-linked, units joined directly phosphodiester-linked; [ ] holds rarer units or linkages, { } end groups; capitals alone tell only the bases. e = 2'-O-(2-methoxyethyl) (MOE); [5mC] = 5-methylcytosine; d = 2'-deoxy (DNA)

Key:
Type in all cases: cell-based
human Factor 7 mRNA [1] = experiment: Antisense inhibition of human Factor 7 mRNA in HepB3 cells, 50 nM antisense oligonucleotide, lipofectin; conditions: for % Inhibition of human Factor 7 mRNA levels: gapmers targeted to nucleobases 4868 to 4899 of SEQ ID NO: 1, Table 8
Procedure, shortened: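 HepB3 cells were transfected by lipofectin with 50 nM antisense oligonucleotide and harvested after about 24 h. Factor 7 mRNA was measured by real-time RT-PCR (primer probe set RTS 2927 in some runs), normalized to RIBOGREEN total RNA, and reported as percent inhibition versus untreated control.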

human Factor 7 mRNA [2] = experiment: Dose-dependent antisense inhibition of human Factor 7 in HepB3 cells, lipofectin; conditions: HepB3 cells, approx. 16 hours (Table 14)
Procedure, shortened: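 HepB3 cells (4,000/well) lipofectin-transfected with antisense oligonucleotide at 3.125 or 6.25 up to 100 nM for ~16 h. Factor 7 mRNA measured by real-time RT-PCR with primer probe set RTS 2927, adjusted to RIBOGREEN total RNA; expressed as percent inhibition versus untreated control cells.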

human Factor 7 mRNA [3] = experiment: Dose-dependent antisense inhibition of human Factor 7 in HepB3 cells, electroporation
Description: (§1) The gapmers were also transfected via electroporation and their dose-dependent inhibition of human Factor 7 mRNA was measured. Cells were plated at a density of 20,000 cells per well and transfected via electroporation with 3.125 μM, 6.25 μM, 12.5 μM, 25 μM, 50 μM, and 100 μM concentrations of antisense oligonucleotide, as specified in Table 15. After a treatment period of approximately 16 hours, RNA was isolated from the cells and Factor 7 mRNA levels were measured by quantitative real-time PCR. Human Factor 7 primer probe set RTS 2927 was used to measure mRNA levels. Factor 7 mRNA levels were adjusted according to total RNA content, as measured by RIBOGREEN®. Results are presented as percent inhibition of Factor 7, relative to untreated control cells.
as §1, with “Cells were” for “The gapmers were also transfected via electroporation and their dose-dependent inhibition of human Factor 7 mRNA was measured. Cells were”, “in […]. After a” for “in Table 15. After a”, “cells and human Factor 7” for “cells and Factor 7”

[4] = 3.125 μM, approx. 16 hours (Table 15, Example 7)
[5] = 3.125 μM, approx. 16 hours (Table 16, Example 8 confirmation)
[6] = 6.25 μM, approx. 16 hours (Table 15, Example 7)
[7] = 6.25 μM, approx. 16 hours (Table 16, Example 8 confirmation)
[8] = 12.5 μM, approx. 16 hours (Table 15, Example 7)
[9] = 12.5 μM, approx. 16 hours (Table 16, Example 8 confirmation)
[10] = 25 μM, approx. 16 hours (Table 15, Example 7)
[11] = 25 μM, approx. 16 hours (Table 16, Example 8 confirmation)
[12] = 50 μM, approx. 16 hours (Table 15, Example 7)
[13] = 50 μM, approx. 16 hours (Table 16, Example 8 confirmation)
[14] = 100 μM, approx. 16 hours (Table 15, Example 7)
[15] = 100 μM, approx. 16 hours (Table 16, Example 8 confirmation)

422296 (antisense e[5mC]*e[5mC]*dG*dA*dG*dT*dT*d[5mC]*dT*dG*d[5mC]*dA*dG*dG*dA*eG*e[5mC]*eG*eG*e[5mC]) [compound 422296]
% Inhibition of human Factor 7 mRNA levels (human Factor 7 mRNA [1]): 74% | percent inhibition of Factor 7 mRNA, relative to untreated control cells (human Factor 7 mRNA [2]; 3.125 nM): 21% | percent inhibition of Factor 7 mRNA, relative to untreated control cells (human Factor 7 mRNA [2]; 12.5 nM): 39% | percent inhibition of Factor 7 mRNA, relative to untreated control cells (human Factor 7 mRNA [2]; 25 nM): 67% | percent inhibition of Factor 7 mRNA, relative to untreated control cells (human Factor 7 mRNA [2]; 50 nM): 78% | percent inhibition of Factor 7 mRNA, relative to untreated control cells (human Factor 7 mRNA [2]; 100 nM): 82% | percent inhibition of Factor 7 mRNA, relative to untreated control cells (human Factor 7 mRNA [2]): 27% | percent inhibition of Factor 7 mRNA, relative to untreated control cells (human Factor 7 mRNA [3]; [4]): 62% | percent inhibition of Factor 7 mRNA, relative to untreated control cells (human Factor 7 mRNA [3]; [5]): 47% | percent inhibition of Factor 7 mRNA, relative to untreated control cells (human Factor 7 mRNA [3]; [6]): 40% | percent inhibition of Factor 7 mRNA, relative to untreated control cells (human Factor 7 mRNA [3]; [7]): 44% | percent inhibition of Factor 7 mRNA, relative to untreated control cells (human Factor 7 mRNA [3]; [8]): 56% | percent inhibition of Factor 7 mRNA, relative to untreated control cells (human Factor 7 mRNA [3]; [9]): 70% | percent inhibition of Factor 7 mRNA, relative to untreated control cells (human Factor 7 mRNA [3]; [10]): 56% | percent inhibition of Factor 7 mRNA, relative to untreated control cells (human Factor 7 mRNA [3]; [11]): 78% | percent inhibition of Factor 7 mRNA, relative to untreated control cells (human Factor 7 mRNA [3]; [12]): 82% | percent inhibition of Factor 7 mRNA, relative to untreated control cells (human Factor 7 mRNA [3]; [13]): 80% | percent inhibition of Factor 7 mRNA, relative to untreated control cells (human Factor 7 mRNA [3]; [14]): 84% | percent inhibition of Factor 7 mRNA, relative to untreated control cells (human Factor 7 mRNA [3]; [15]): 82%

422130 (antisense eG*e[5mC]*e[5mC]*eT*eG*dA*dG*dG*d[5mC]*d[5mC]*dA*dG*d[5mC]*dA*dG*eA*eT*e[5mC]*eA*e[5mC]) [compound 422130]
% Inhibition (human Factor 7 mRNA levels) (human Factor 7 mRNA [1]; oligonucleotides targeted to nucleobases 14707 to 14732 of SEQ ID NO: 1 (Table 11)): 79% | percent inhibition of Factor 7 mRNA, relative to untreated control cells (human Factor 7 mRNA [2]; 3.125 nM): 4% | percent inhibition of Factor 7 mRNA, relative to untreated control cells (human Factor 7 mRNA [2]; 12.5 nM): 34% | percent inhibition of Factor 7 mRNA, relative to untreated control cells (human Factor 7 mRNA [2]; 25 nM): 59% | percent inhibition of Factor 7 mRNA, relative to untreated control cells (human Factor 7 mRNA [2]; 50 nM): 77% | percent inhibition of Factor 7 mRNA, relative to untreated control cells (human Factor 7 mRNA [2]; 100 nM): 85% | percent inhibition of Factor 7 mRNA, relative to untreated control cells (human Factor 7 mRNA [2]): 15% | percent inhibition of Factor 7 mRNA, relative to untreated control cells (human Factor 7 mRNA [3]; [4]): 28% | percent inhibition of Factor 7 mRNA, relative to untreated control cells (human Factor 7 mRNA [3]; [5]): 14% | percent inhibition of Factor 7 mRNA, relative to untreated control cells (human Factor 7 mRNA [3]; [6]): 29% | percent inhibition of Factor 7 mRNA, relative to untreated control cells (human Factor 7 mRNA [3]; [7]): 24% | percent inhibition of Factor 7 mRNA, relative to untreated control cells (human Factor 7 mRNA [3]; [8]): 59% | percent inhibition of Factor 7 mRNA, relative to untreated control cells (human Factor 7 mRNA [3]; [9]): 61% | percent inhibition of Factor 7 mRNA, relative to untreated control cells (human Factor 7 mRNA [3]; [10]): 61% | percent inhibition of Factor 7 mRNA, relative to untreated control cells (human Factor 7 mRNA [3]; [11]): 68% | percent inhibition of Factor 7 mRNA, relative to untreated control cells (human Factor 7 mRNA [3]; [12]): 73% | percent inhibition of Factor 7 mRNA, relative to untreated control cells (human Factor 7 mRNA [3]; [13]): 82% | percent inhibition of Factor 7 mRNA, relative to untreated control cells (human Factor 7 mRNA [3]; [14]): 86% | percent inhibition of Factor 7 mRNA, relative to untreated control cells (human Factor 7 mRNA [3]; [15]): 88%

422295 (antisense e[5mC]*eG*dA*dG*dT*dT*d[5mC]*dT*dG*d[5mC]*dA*dG*dG*dA*dG*e[5mC]*eG*eG*e[5mC]*e[5mC]) [compound 422295]
% Inhibition of human Factor 7 mRNA levels (human Factor 7 mRNA [1]): 74% | percent inhibition of Factor 7 mRNA, relative to untreated control cells (human Factor 7 mRNA [2]; 3.125 nM): 17% | percent inhibition of Factor 7 mRNA, relative to untreated control cells (human Factor 7 mRNA [2]; 12.5 nM): 44% | percent inhibition of Factor 7 mRNA, relative to untreated control cells (human Factor 7 mRNA [2]; 25 nM): 64% | percent inhibition of Factor 7 mRNA, relative to untreated control cells (human Factor 7 mRNA [2]; 50 nM): 80% | percent inhibition of Factor 7 mRNA, relative to untreated control cells (human Factor 7 mRNA [2]; 100 nM): 85% | percent inhibition of Factor 7 mRNA, relative to untreated control cells (human Factor 7 mRNA [2]): 22% | percent inhibition of Factor 7 mRNA, relative to untreated control cells (human Factor 7 mRNA [3]; [4]): 10% | percent inhibition of Factor 7 mRNA, relative to untreated control cells (human Factor 7 mRNA [3]; [6]): 8% | percent inhibition of Factor 7 mRNA, relative to untreated control cells (human Factor 7 mRNA [3]; [8]): 37% | percent inhibition of Factor 7 mRNA, relative to untreated control cells (human Factor 7 mRNA [3]; [10]): 58% | percent inhibition of Factor 7 mRNA, relative to untreated control cells (human Factor 7 mRNA [3]; [12]): 68% | percent inhibition of Factor 7 mRNA, relative to untreated control cells (human Factor 7 mRNA [3]; [14]): 80%

422087 (antisense e[5mC]*eA*eT*eG*e[5mC]*dA*dT*dG*dG*dT*dG*dA*dT*dG*d[5mC]*eT*eT*e[5mC]*eT*eG) [compound 422087]
% Inhibition (human Factor 7 mRNA [1]; Table 13 (microwalk), 50 nM, lipofectin, approximately 24 hours): 83% | percent inhibition of Factor 7 mRNA, relative to untreated control cells (human Factor 7 mRNA [2]; 3.125 nM): 14% | percent inhibition of Factor 7 mRNA, relative to untreated control cells (human Factor 7 mRNA [2]; 12.5 nM): 51% | percent inhibition of Factor 7 mRNA, relative to untreated control cells (human Factor 7 mRNA [2]; 25 nM): 73% | percent inhibition of Factor 7 mRNA, relative to untreated control cells (human Factor 7 mRNA [2]; 50 nM): 83% | percent inhibition of Factor 7 mRNA, relative to untreated control cells (human Factor 7 mRNA [2]; 100 nM): 90% | percent inhibition of Factor 7 mRNA, relative to untreated control cells (human Factor 7 mRNA [2]): 24% | percent inhibition of Factor 7 mRNA, relative to untreated control cells (human Factor 7 mRNA [3]; [4]): 22% | percent inhibition of Factor 7 mRNA, relative to untreated control cells (human Factor 7 mRNA [3]; [5]): 19% | percent inhibition of Factor 7 mRNA, relative to untreated control cells (human Factor 7 mRNA [3]; [6]): 26% | percent inhibition of Factor 7 mRNA, relative to untreated control cells (human Factor 7 mRNA [3]; [7]): 38% | percent inhibition of Factor 7 mRNA, relative to untreated control cells (human Factor 7 mRNA [3]; [8]): 48% | percent inhibition of Factor 7 mRNA, relative to untreated control cells (human Factor 7 mRNA [3]; [9]): 66% | percent inhibition of Factor 7 mRNA, relative to untreated control cells (human Factor 7 mRNA [3]; [10]): 57% | percent inhibition of Factor 7 mRNA, relative to untreated control cells (human Factor 7 mRNA [3]; [11]): 75% | percent inhibition of Factor 7 mRNA, relative to untreated control cells (human Factor 7 mRNA [3]; [12]): 72% | percent inhibition of Factor 7 mRNA, relative to untreated control cells (human Factor 7 mRNA [3]; [13]): 80% | percent inhibition of Factor 7 mRNA, relative to untreated control cells (human Factor 7 mRNA [3]; [14]): 80% | percent inhibition of Factor 7 mRNA, relative to untreated control cells (human Factor 7 mRNA [3]; [15]): 87%
